Data on one compound can be found in patent publication US20250092360A1, “METHODS AND COMPOSITIONS FOR GENERATING SOMATOSTATIN+ INTERNEURONS FROM HUMAN FOREBRAIN NEURAL PROGENITOR CELLS” (Trailhead Biosystems Inc., priority 2023, published 2025).

Assay [1] deals with human pluripotent stem cells. The assay can be described thus: HD-DoE stage 1, first 12-factor experiment: gene expression (qPCR) after 3-day treatment. In kind it is cell-based. The text has this:
This example utilizes a method of High-Dimensional Design of Experiments (HD-DoE), as previously described in Bukys et al. (2020) […] 23:101346. The method employs computerized design geometries to simultaneously test multiple process inputs and offers mathematical modeling of a deep effector/response space. The method allows for finding combinatorial signaling inputs that control a complex process, such as during cell differentiation. It allows testing of multiple plausible critical process parameters, as such parameters impact output responses, such as gene expression. Because gene expression provides hallmark features of the phenotype of, for example, a human cell, the method can be applied to identify, and understand, which signaling pathways control cell fate. In the current example, the HD-DOE method was applied with the intent to find conditions for induction of […] neural progenitor-expressed genes, directly from the pluripotent stem cell state. To develop the recipe for each stage, the impact of agonists and antagonists of multiple signaling pathways (herein called effectors) on the expression of two sets of 53 pre-selected genes, after a 3-day treatment, has been tested and modeled. These effectors are small molecules or proteins that are commonly used during stepwise differentiation of stem cells to specific fates. Choice of the effectors were based on current literature on neural induction in forebrain region of developing brain and differentiation of stem cells to neural progenitors. To test the effectors, experiments with at least 8 factors were designed that can assess the response of cells to 48 or more different combinations of effectors in a range of concentrations. To analyze the models, we focused on expression of genes involved in development and patterning of the anterior neuroectoderm and forebrain including OTX2 (Hoch et al. (2015) Cell Reports 12:482-494), SIX3 (Lagutin et al. (2003) Genes & Development 17:368-379) and FEZF2 (Zhang et al. (2014) Development 141:4794-[…]). At later stages we focused on dorsoventral patterning of telencephalon and gene expressed in ventral forebrain including NKX2-1 and absence of PAX6 which is a dorsal forebrain marker (Stoykova et al. (2000) J. Neurosci. 20:8042-8050). The impact of each effector on gene expression level is defined by a parameter called factor contribution that is calculated for each effector during the modeling. To identify the recipe for stage 1 of differentiation, 96 different combinations of effectors generated using Design-of-Experiments compression through D-optimality were robotically prepared. The effector combinations were prepared in a basal media and were subsequently added to the cells, which were then allowed to differentiate. Three days later RNA extraction was performed, and gene expression was obtained using quantitative PCR analysis. The data were normalized and modeled using partial least squares regression analysis to the effector design, resulting in the generation of gene-specific models, which after model tuning for maximal Q2 predictive power, provided explanation of the effectors ability to control the expression of individual genes, combinatorically, and individually. Solutions within the tested space could then be explored to address desirability. Optimizing for maximal expression of SIX3 at 3300 and FEZF2 1355 expression values led to robust solutions. This model was derived from testing 12 effectors including AGN193109, LDN193189, CHIR99021, XAV939, IGF2, Purmorphamine, 4-oxo-RA, TTNPB, SR11237, FGF8, PD0325901 and […]. […] The model was also optimized for maximum expression of FEZF2 separately at 3576 expression value to find any additional factors that can boost expression of forebrain genes. […] To find the set of factors that have the potential to optimize all 3 genes in this experiment, a new assessment was done through dynamic profile analysis with focus on maximal expression of OTX2, FEZF2 and SIX3.
(Quantitative PCR measures a nucleic acid by following its amplification.)

For assay [2], the system named is human pluripotent stem cells. Description: HD-DoE stage 1, additional experiment: FEZF2 expression. In kind it is cell-based. The procedure:
To identify the recipe for stage 1 of differentiation, 96 different combinations of effectors generated using Design-of-Experiments compression through D-optimality were robotically prepared. The effector combinations were prepared in a basal media and were subsequently added to the cells, which were then allowed to differentiate. Three days later RNA extraction was performed, and gene expression was obtained using quantitative PCR analysis. The data were normalized and modeled using partial least squares regression analysis to the effector design, resulting in the generation of gene-specific models, which after model tuning for maximal Q2 predictive power, provided explanation of the effectors ability to control the expression of individual genes, combinatorically, and individually. Solutions within the tested space could then be explored to address desirability. To further enhance the conditions for forebrain differentiation from pluripotency, an additional HD-DoE experiment was performed. Additional gene regulatory models were obtained that were used for preparation of the differentiation protocol. The factors in this experiment included LDN193189, PD173074, BLU9931, Purmorphamine, SC79, MK2206, ZM336372, PD0325901, CHIR99021, XAV939, UCLA-GP130, Tofacitinib and GO6983. […] Dynamic profile analysis was also used to assess the interaction between the effectors.

Assay [3] concerns forebrain-committed neural stem cells. Description: HD-DoE stage 2, 12-factor experiment: NKX2-1 expression. In kind it is cell-based, human. To be noted: model / dynamic profile, in words. The procedure:
To further guide the differentiation of forebrain-committed neural stem cells to ventral forebrain neural stem cells at stage 2, a HD-DoE experiment was performed for 3 days after termination of stage 1 treatment. […] This 12-factor experiment included LDN193189, BMP7, PD0325901, MK2206, A8301, XAV939, CHIR99021, Purmorphamine, SANT-1, AGN193109, TTNPB and GSI-XX. […]

The subject of assay [4] is human pluripotent stem cells. Description: Factor criticality analysis, stage 1 recipe (dynamic profile analysis). The assay is classed as cell-based. The note with it: other five stage 1 factors present, FIG. 11. An excerpt:
To assess the impact of the elimination of each validated factor, dynamic profile analysis was used and compared the expression level of genes of interest in absence of each finalized factor while others are present. […] When Purmorphamine was removed, levels of FEZF2 and SIX3 were decreased to 1000 and below 3000, while levels of OTX2 increased to 6500.

Assay [5] concerns forebrain-committed neural stem cells. The assay can be described thus: Factor criticality analysis, stage 2 recipe. In kind it is cell-based, human. To be noted: other three stage 2 factors present. The procedure: To assess the impact of the elimination of each validated factor, dynamic profile analysis was used and compared the expression level of genes of interest in absence of each finalized factor while others are present.
In the stage 2 recipe, each of the four finalized factors were removed while the other three factors remained present and expression levels of NKX2-1, PAX6 and NKX2-2 were assessed compared to presence of all four factors. Absence of PD0325901 reduced the levels of NKX2-1 and NKX2-2 while increasing PAX6 from 5000 to 3200, 100 to 0 and 0 to 5000, respectively. […] Removing XAV939 reduced the levels of NKX2-1 from 5000 to 3000, while increasing both PAX6 and NKX2-2 to 10000 and 200, respectively. Another observation was the interaction between XAV939 and Purmorphamine. In the absence of XAV939, the impact of Purmorphamine on NKX2-1 became negative and, as it is shown in interaction plot of FIG. 14, the level of NKX2-1 is higher when both factors are present.

“Also recorded” adds a separate entry of the source.

With `Oc1nc(-c2ccc(C(F)(F)F)cc2)nc2c1CSCC2` [XAV939], the “impact on expression of OTX2” value in assay [1] (dynamic profile / model, in words) is “positive impact”. The “factor contribution, expression of SIX3” value in assay [1] (positive impact, model optimized for maximal SIX3, 3-day treatment, qPCR) is 5. In assay [2] (dynamic profile, in words), the “impact on expression of FEZF2” value is on record as “positive impact”. The “factor contribution, expression of FEZF2” value in assay [2] (positive impact, additional stage 1 experiment optimized for FEZF2) stood at 12. In assay [3], the “impact on expression of NKX2-1” value was “increase; also recorded: Positive impact”. Besides, the “expression level of FEZF2 when the factor is removed” value in assay [4] (2000 with all six factors) is given as 1700. The “expression level of SIX3 when the factor is removed” value in assay [4] (3000 with all six factors) came out at 1000. In addition, the “expression level of OTX2 when the factor is removed” value in assay [4] (5500 with all six factors) stood at 5000. The “expression level of PAX6 when the factor is removed” value in assay [5] (0 with all four factors) is reported as 10000. Further, the “expression level of NKX2-2 when the factor is removed” value in assay [5] (100 with all four factors) came out at 200. The “expression level of NKX2-1 when the factor is removed” value in assay [5] (5000 with all four factors) was 3000.
